# Data as given in a melting point compilation (Tetko et al.; mined from patent text by program, amines drawn as free bases though some values may be those of a salt).
row,SMILES,melting point
1,CCCCCCCCCCCCCCC1CC1C(=O)O (stereo unspecified),62 to 64 °C
2,CCCCOc1ccc(S(=O)(=O)N2CCC(NCc3ccccc3)C2)cc1 (stereo unspecified),99 to 100 °C
3,COc1ccc2c(c1O)NC(O)C1CCCN1C2=O (stereo unspecified),152 to 155 °C
4,NC(CO)c1ccc(-c2ccc(SC(F)F)cc2)cc1 (stereo unspecified),108 to 110 °C
5,COc1cc2c(cc1OC)C1(CCC(C(=O)O)(C(=O)O)CC1)N(C(=O)OCc1ccccc1)CC2,181 to 182 °C
6,COC(=O)c1sc2ccc(OCc3cccnc3)cc2c1Cl,126 to 128 °C
7,COc1cc(-c2ccccc2F)nc(-c2cccc(C)n2)n1,99.5 °C
8,Cc1c2c(cc3c(=O)c4ccccc4oc13)CC(C(=O)O)O2 (stereo unspecified),297 to 299 °C
9,CCCOC(=O)C1=C(C)NC(C#N)=C(C(=O)OC)C1c1ccccc1C#N (stereo unspecified),150 to 152 °C
10,O=C1CCNc2ccccc2N1c1ccccc1,170 to 171 °C
11,COc1nc(C(F)(F)F)cc(=O)n1-c1cc(OCCON=C(C)C)c(Cl)cc1F,136 to 138 °C
12,O=C1C2=C(CCCC2)C(O)N1c1ccc(Cl)cc1F (stereo unspecified),178 to 179 °C
13,CCN(CC)CCn1cc(C(=O)NCc2ccc(Cl)cc2)c(=O)c2cc(CCCO)sc21,111 to 114 °C
14,Cc1nc(F)c(S(C)(=O)=O)c(F)n1,120 to 123 °C
15,COc1cc(Nc2c(C#N)cnc3cc(-c4cnc(CN5CCN(C)CC5)n4C)sc23)c(Cl)cc1Cl,234 to 235 °C
16,CC(C)(C)c1ccc(OCC(=O)NCc2ccc(NS(C)(=O)=O)cc2)cc1,163 °C
17,Cc1sc2nc3ccc(C(=O)O)cn3c(=O)c2c1C,364 to 368 °C
18,O=C(Nc1ccc(Oc2ccc(Cl)cc2)cc1)N1CC(c2ccccc2)=C(c2ccc(Cl)cc2)N1,158 to 161 °C
19,COc1cc(C2CCN(C)CC2)ccc1Nc1ncc2ccc(-c3cccc(S(=O)(=O)NC(C)(C)C)c3)n2n1,189 to 198 °C
20,O=C1CCC(N2Cc3c(OCc4cccc(CN5CCC(c6ccc(F)cc6F)CC5)c4)cccc3C2=O)C(=O)N1 (stereo unspecified),211 to 213 °C
21,CCOC(=O)N1CCN(c2ncnc3c2cnn3Cc2ccncc2)CC1,123 to 124 °C
22,CCCCNS(=O)(=O)CC(O)C(O)C(CC1CCCCC1)NC(=O)CCC(C)C (stereo unspecified),88 to 92 °C
23,CCCC12CCC(c3ccc(C#N)c(F)c3)(CC1)CC2,63 °C
24,CCCCCCCCCCCC(=O)NC1C(C)C(c2ccccc2)NC(c2ccccc2)C1C (stereo unspecified),112 to 114 °C

row,SMILES,melting point
1,Cn1cnnc1C(c1ccc(C#N)cc1)c1cc2c3c(c1)c(-c1cccc(Cl)c1)cc(=O)n3CC2 (stereo unspecified),174 °C
2,CSc1nnc(-c2ccc3ccccc3c2)n1C,177 to 179 °C
3,COC(=O)C[C@H]1[C@H](C(=O)N(C)OC)C(=O)N1C(c1ccccc1)(c1ccccc1)c1ccccc1,168 to 169 °C
4,CSC(=O)c1c(C(F)F)nc(C(F)(F)F)c(C(=O)SC)c1NC(C)C,92 to 94 °C
5,CC(=O)NC1=C(O)CC(C(=O)N(C)C)CC1=O (stereo unspecified),162 to 164 °C
6,CC1(C)CCC(=O)Nc2cc(OCCCCN3CCN(c4cccc(Cl)c4Cl)CC3)ccc21,106 to 108 °C
7,COc1ccc(CC[N+](=O)[O-])cc1OC,50 to 52 °C
8,CC(C)C(=O)c1c[nH]c2c(COC(=O)c3ccccc3)cccc2c1=O,158 to 160 °C
9,CC(C)(N)CNc1ccc(C2=NNC(=O)CC2)cc1,190 to 192 °C
10,O=C(O)C(=O)Nc1cccc(NC(=O)C(=O)O)n1,> 310 °C
11,COc1ccc(-c2cncn2-c2ccc(S(C)(=O)=O)cc2)cc1,185 to 187 °C
12,CC(=O)OC[C@@H]1CCCN1C(c1ccccc1)(c1ccccc1)c1ccccc1Cl,102 to 104 °C
13,CCCCCCCCCCCCCC(=O)Nc1ccc(Cl)c(NC2=NN(c3c(Cl)cc(Cl)cc3Cl)C(=O)C2SCc2ccccc2)c1 (stereo unspecified),182 to 185 °C
14,COc1ccc2cc([C@H](C)C(=O)OCC3(C(SN=O)(C4CC4)C4CC4)CCN(C)CC3)ccc2c1,88 °C
15,O=CC1c2ccccc2C(C=O)c2c(Cl)cccc21 (stereo unspecified),144 to 146 °C
16,C(=C\c1cc(/C=C/c2ccc3cc[nH]c3c2)[nH]n1)/c1ccc(N2CCCCC2)cc1,189 to 191 °C
17,CC(C)(C)c1cc(N)n(-c2cccc(Oc3ccccc3)c2)n1,108 to 110 °C
18,COC(=O)CN1C(=O)c2c(c3cc(C)ccc3n2C)S1(=O)=O,248 °C
19,CCCCCCNC(=O)[C@@H](NC(=O)[C@H](CC(C)C)NC(=O)OC(C)(C)C)C(C)C,115 to 116 °C
20,"CCCOC(C)c1ccc(O)cc1 (single isomer, unassigned; (+))",61 to 63 °C
21,CCc1ccccc1NS(=O)(=O)c1cc(S(=O)(=O)Nc2ccccc2CC)c2cc(O)ccc2c1,127 to 129 °C
22,Cc1c(C)c2c(c(C)c1OC(=O)c1ccccc1)SC(CCCOC(=O)c1ccccc1)O2 (stereo unspecified),114 to 116 °C
23,CC(C)c1nc(-c2c(F)c(F)cc(F)c2F)cc(-c2ccc(F)cc2)c1C=C(Br)Br,77 °C
24,CC(=O)S[C@@H]1CCNC1=S,98 to 100 °C

row,SMILES,melting point
1,COc1ccc(C(=O)c2cc(Cl)ccc2N)c(O)c1OC,112 to 115 °C
2,CC(C)(C)C(=O)OCOC(=O)C1CCc2c(c3ccccc3n2C(=O)c2ccccc2)C1 (stereo unspecified),75 to 77 °C
3,COC(=O)c1cccnc1NC(=O)C(C)CS (stereo unspecified),50 to 52 °C
4,COc1ccccc1N1CCN(CCCNC(=O)c2cccc3c2OC(C2CCCCC2)CC3)CC1 (stereo unspecified),79 to 83 °C
5,CN(C)C(=O)Cc1nc(-c2ccccc2)nc2c1c1ccc(Cl)cc1n2C,185 to 187 °C
6,Cc1nc(-c2ccc(C(F)(F)F)cc2)sc1CSc1ccc(OCC(=O)O)cc1,190 °C
7,N#CC(C#N)=CN(N=C(C#N)C#N)c1ccc(Cl)cc1,161 to 162 °C
8,CCCCc1ccc2nc(NC(=O)c3csc(CNC(=O)OC(C)(C)C)n3)sc2c1,143 to 144 °C
9,O=C(Nc1nccs1)c1nc(-c2cccc3ccccc23)[nH]c1-c1ccc(CO)cc1,226 to 228 °C
10,NC(=O)N1CCC(c2nn(-c3ccc(C(F)(F)F)cc3)c3ccc(F)cc23)CC1,172 to 174 °C
11,O=C(c1ccccc1)c1ccc(O)c(Cl)c1,180 °C
12,Cc1cccc(C(=O)O)c1-c1ccc(C(F)(F)F)cc1,202 to 203 °C
13,COc1cccc(C(=O)N2CCN(CC3(C)Cc4c(C)c(N)c(C)c(C)c4O3)CC2)c1 (stereo unspecified),95 to 98 °C
14,Cc1cc2c(cc1-c1csc(C=O)c1)C(C)(C)CCC2(C)C,144 to 146 °C
15,COC(=O)CSc1cc(NC(=S)N2CCCN2)c(F)cc1Cl,137 to 141 °C
16,CCOC(=O)c1cnc(N2CCSCC2)nc1Cl,81 to 83 °C
17,COc1ccc2c(c1)cc(-c1ccccc1)n2-c1ccc(O)cc1,200 to 201 °C
18,C=Cn1ccnc1C=O,48 to 51 °C
19,"COc1ccc(N(C(=O)CN2C(=O)C(Cc3n[nH]c4ccccc34)C(=O)N(c3cccnc3)c3ccccc32)C(C)C)cc1 (single isomer, unassigned; (+))",214 to 215 °C
20,OC1(Cn2cncn2)C(=Cc2ccc(Cl)cc2)CCCC1C1CCCCC1 (stereo unspecified),144 °C
21,CC#CCOc1ccc(S(=O)(=O)N(C)C(CCCSc2ccc(Cl)cc2)C(=O)OC)cc1 (stereo unspecified),88 to 89 °C
22,O=[N+]([O-])c1c(NCCO)cc(C(O)CSCC(O)c2cc(NCCO)c([N+](=O)[O-])c(NCCO)c2)cc1NCCO (stereo unspecified),157 °C
23,O=C1CC=C(c2ccc(Cl)cc2)CC1,59 to 62 °C
24,COc1ccc(C(O)c2ccc(C(=O)N(C3CCCC3)C3CCCC3)cc2)cc1OC (stereo unspecified),137 to 138 °C

row,SMILES,melting point
1,CCCc1c(CO)ncn1S(=O)(=O)N(C)C,86 to 88 °C
2,CC1(C)COC(c2ccccc2-c2ccc(-c3ccccc3)cc2)=N1,95 to 97 °C
3,CC(=O)NC[C@H]1CN(c2ccc(I)c(F)c2)C(=O)O1,186 °C
4,COCCn1cc(-c2ccccc2)[nH]c1=O,152 to 153 °C
5,CCCCC(=O)Nc1ncc(Br)c(C)c1[N+](=O)[O-],134 to 135 °C
6,Cc1nccn1Cc1c(C(=O)O)nc2c(=O)[nH]c3cc(C(F)(F)F)ccc3n12,> 250 °C
7,CN1CCN(c2c(CO)cnc3c(NC(=O)c4c(Cl)cccc4Cl)cccc23)C1=O,251 to 253 °C
8,COc1cc(OC)cc(-c2ncn(-c3cc(OC)c(OC)c(OC)c3)c2-c2ccc(OC)c(F)c2)c1,157 to 158 °C
9,CC(=O)Nc1c([N+](=O)[O-])c(Br)nn1-c1c(Cl)cc(C(F)(F)F)cc1Cl,179 to 180 °C
10,CC(=O)SCC(Cc1ccccc1)C(=O)NN1CCCC1 (stereo unspecified),91 °C
11,CCc1cn(C)cc(-c2cccc(C(F)(F)F)c2)c1=O,95.5 to 96.5 °C
12,COC(=O)c1cc(OC)c(OC)cc1NC(=O)c1sccc1S(=O)(=O)Nc1onc(C)c1Cl,167 to 168 °C
13,CNC(=O)[C@@H]1CCCCN1S(=O)(=O)c1ccc(Cl)c(COc2cccc3c(-n4ccnc4)cc(C)nc23)c1Cl,74 °C
14,CONS(=O)(=O)c1ccc(Cl)c(Cl)c1,146 to 147 °C
15,Cc1ccc(NC(=O)c2cccc(N3CCOCC3)c2)cc1NC(=O)c1cccc(N(C)S(C)(=O)=O)c1,208 to 209 °C
16,COC(=O)CC(NC(=O)c1cccc(OC)c1)c1ccc(OC)c(OC)c1 (stereo unspecified),124 to 125 °C
17,Cc1ccc([N+](=O)[O-])cc1CNC(=O)c1ccccc1,134 to 137 °C
18,CC(C)(C)OC(=O)CN1CC(c2ccco2)SCC(N2C(=O)c3ccccc3C2=O)C1=O (stereo unspecified),158 to 161 °C
19,COc1ccccc1N1CCN(CCCOc2ccc(-c3nnco3)cc2)CC1,139 to 140 °C
20,CCN(CC)C(=O)c1c(Cl)cccc1C(=O)Nc1ccc(Cn2nc(C(F)(F)F)cc2C(F)(F)F)cc1C,105 to 107 °C
21,Cc1ccc2ncc(C(=O)NC3CCCC3)c(=O)n2c1,162 to 164 °C
22,Cc1nc(N2CCN(C)CC2)ccc1N1CCCn2c1nc1c(Cl)ccc(C(OC(F)F)C(F)(F)F)c12 (stereo unspecified),193 to 195 °C
23,CC(=O)Nc1ccc2[nH]cc(CC#N)c2c1,172 to 175 °C
24,COc1ccc([C@@H]2O[C@@](O[Si](C)(C)C)(C(F)(F)F)[C@H](Cc3ccccc3)N2C(=O)OCc2ccccc2)cc1,41 to 42 °C
